Laboratory results as given in patent US8911953B2, “TDF-related compounds and analogs thereof, analogs and bioactive fragments” (Thrasos Innovation, Inc., priority 2005, dated 2014).
“Also recorded” adds a separate entry of the source. Positions of bridges follow the written chain, without caps; N, C: chain ends. No end group written: not given here.

Columns and labels:
[1] = system: LNCaP human prostate cancer cells; assay: Smad phosphorylation in LNCaP prostate cancer cells (Western blot); format: cell-based; details: for Smad 1, 5, 8 phosphorylation on co-administration: TDFRP compound co-administered with BMP-6, LNCaP cells; for Smad phosphorylation and activation: single agent, cultured LNCaP cells
Description: The detection of Smad phosphorylation by Western analysis, for example in LNCaP (prostate cancer cells) or EC (vascular endothelial cells) in culture medium can be examined after exposure to varying concentrations of TDFRP or control compounds. BMP-7 serves as a positive control. Cells are lysed in RIPA lysis buffer (50 mM Tris-HCl at pH 8.0, 150 mM NaCl, 1% NP-40, 0.5% sodium deoxycholate, 0.1% SDS) containing 1 mM PMSF, 1 mM sodium orthovanadate, and 10 ug/mL proteinase inhibitor cocktail. Lysates are incubated on ice for 15 minutes, centrifuged, and transferred supernatant to a clean tube. 50 to 100 ug is used for analysis by SDS-PAGE. Resolved proteins are electro transferred onto PVDF membrane. The blot is blocked by incubating in 3% non-fat dry milk prepared in PBS at room temperature for 1 hour with constant slow agitation. The blot is incubated with 1-2 ug/mL of primary antibody (rabbit anti-phospho-Smad 1) prepared in PBS-milk, overnight with agitation at 4 degree C., washed twice with PBS, and incubated with secondary antibody (anti rabbit HRP conjugated IgG, 1:3000 dilution) at room temperature for 2 hours with agitation. After washing in PBS-0.05% Tween 20 for 5 minutes and rinsing, Smad phosphorylation is detected via an HRP reaction according to manufacturer's instructions (FIGS. 2, 3, 18, 2X).
For detection of Smad phosphorylation by Western analysis, LNCaP (prostate cancer cells) or EC (vascular endothelial cells) in culture medium are exposed to varying concentrations of TDFRP or control compounds. BMP-7 served as a positive control. Cells are lysed in RIPA lysis buffer (50 mM Tris-HCl at pH 8.0, 150 mM NaCl, 1% NP-40, 0.5% sodium deoxycholate, 0.1% SDS) containing 1 mM PMSF, 1 mM sodium orthovanadate, and 10 ug/mL proteinase inhibitor cocktail. Lysates are incubated on ice for 15 minutes, centrifuged, and transferred supernatant to a clean tube. 50 to 100 ug is used for analysis by
SDS-PAGE. Resolved proteins are electro transferred onto PVDF membrane. The blot is blocked by incubating in 3% non-fat dry milk prepared in PBS at room temperature for 1 hour with constant slow agitation. The blot is incubated with 1-2 ug/mL of primary antibody (rabbit anti-phospho-Smad 1) prepared in PBS-milk, overnight with agitation at 4 degree C., washed twice with PBS, and incubated with secondary antibody (anti rabbit HRP conjugated IgG, 1:3000 dilution) at room temperature for 2 hours with agitation. After washing in PBS-0.05% Tween 20 for 5 minutes and rinsing, Smad phosphorylation is detected via an HRP reaction according to manufacturer's instructions (FIGS. 3, 27).
BMP signaling molecules co-administered with TDFRP compounds show synergistic or enhanced downstream signaling as detected by Smad phosphorylation. Smad phosphorylation was assessed by Western analysis in LNCaP (prostate cancer cells) or EC (vascular endothelial cells) cells in culture medium exposed to varying concentrations of TDFRP or control compounds. BMP-7 served as a positive control. Cells are lysed in RIPA lysis buffer (50 mM Tris-HCl at pH 8.0, 150 mM NaCl, 1% NP-40, 0.5% sodium deoxycholate, 0.1% SDS) containing 1 mM PMSF, 1 mM sodium orthovanadate, and 10 ug/mL proteinase inhibitor cocktail. Lysates are incubated on ice for 15 minutes, centrifuged, and transferred supernatant to a clean tube. 50 to 100 ug is used for analysis by SDS-PAGE. Resolved proteins are electro transferred onto PVDF membrane. […]

LNCaP = assay: Cancer cell proliferation, tritiated thymidine incorporation; format: cell-based, human; details: LNCaP cultured in vitro
From the text: (§1) TDFRP Compound Inhibition of LNCaP Cancer Cell Proliferation. BMP-6 and a TDFRP compound (SEQ ID NO:45) inhibited the proliferation of prostate cancer cells (LNCaP and PC-3) cultured in vitro as detected by the incorporation of tritiated thymidine (a measure of cell proliferation.
(§2) Prostate cancer is one of the most common cancers in men. […] Moreover, it has been shown that BMP signals inhibit the growth and the proliferation of human prostate tumor cells by upregulating the cyclin-dependent kinase inhibitor (CDKI) p21 (CIP1/WAF1) and decreasing the activity of Cdk2, leading to hypophosphorylation of Rb proteins. TDFRP compounds have been screened in in vitro prostate and bladder cancer bioassays to assess growth inhibitory activity of the compounds (FIG. 3). ^3H-thymidine incorporation is used as a marker for cell proliferation activity in human prostate and bladder cancer cell lines. Cisplatin inhibits ^3H-thymidine incorporation, indicating a tumor-growth suppressive activity of cisplatin in both human prostate and bladder cancer cells. TDFRP compounds are assayed in these cancer cells for the ability to induce receptor-regulated Smad 1/5 phosphorylation in a dose-dependent manner (FIG.).
as §2, with “(FIGS. 3, 28).” for “(FIG. 3).”, “(FIGS. 3, 28).” for “(FIG.).”

PC-3 = assay: as above; format: cell-based, human; details: PC-3 cultured in vitro
From the text: as §1, §2
as §2, with “(FIGS. 3, 28).” for “(FIG. 3).”, “(FIGS. 3, 28).” for “(FIG.).”

ALK-6 = ALK-6 (Homo sapiens, UniProt O00238); details: native protein; cited from earlier work
Sequence of ALK-6 (O00238 14-502): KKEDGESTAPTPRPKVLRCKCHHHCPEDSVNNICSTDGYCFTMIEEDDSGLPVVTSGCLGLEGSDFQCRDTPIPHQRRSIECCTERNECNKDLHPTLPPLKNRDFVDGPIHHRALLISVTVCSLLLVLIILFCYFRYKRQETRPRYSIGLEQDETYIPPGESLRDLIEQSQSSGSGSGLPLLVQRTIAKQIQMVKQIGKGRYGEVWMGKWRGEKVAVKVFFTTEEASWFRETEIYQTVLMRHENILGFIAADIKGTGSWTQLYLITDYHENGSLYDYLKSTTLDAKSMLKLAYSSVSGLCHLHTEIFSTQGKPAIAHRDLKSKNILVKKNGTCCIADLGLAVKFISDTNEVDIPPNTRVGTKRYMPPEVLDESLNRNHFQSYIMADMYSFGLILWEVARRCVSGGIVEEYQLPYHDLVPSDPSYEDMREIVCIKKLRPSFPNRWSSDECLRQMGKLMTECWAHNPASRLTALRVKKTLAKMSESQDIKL

[2] = system: renal tubular epithelial cells; details: 100 ng/ml, 48 hours; cited from earlier work

Molecule | Smad 1, 5, 8 phosphorylation on co-administration [1] | Smad 1, 5, 8 phosphorylation on co-administration ([1]; listed as SEQ ID NO: 45) | Smad phosphorylation and activation [1] | Smad phosphorylation and activation ([1]; listed as SEQ ID NO: 45) | proliferation (incorporation of tritiated thymidine) (LNCaP) | proliferation (incorporation of tritiated thymidine) (PC-3) | affinity of binding to ALK-6 (ALK-6) | TGF-beta1 induced EMT [2]
CYFDDSSNVLCKKYRS (disulfide 1-11 (inferred); not fully specified) [SEQ ID NO:45] | enhanced | enhanced or synergistic activity | induced | phosphorylation and activation of Smad1 and Smad5; also recorded: Smad 1, 5, 8 phosphorylation and activation | inhibited | inhibited |  | 
BMP-7: recombinant human mature BMP-7 (BMP-7 or TDF-1), positive control therapy (protein) STGSKQRSQNRSKTPKNQEALRMANVAENSSSDQRQACKKHELYVSFRDLGWQDWIIAPEGYAAYYCEGECAFPLNSYMNATNHAIVQTLVHFINPETVPKPCCAPTQLNAISVLYFDDSSNVILKKYRNMVVRACGCH |  |  |  |  |  |  | higher affinity | reverses
